Consider three molecules from US20240209011A1, “HETEROAROMATIC PHOSPHONIUM SALTS FOR TREATING CANCER” (FLORATEK PHARMA S.A., priority 2021, published 2024).

Marks after values point to notes of the source that are not given here.

One data set has as its system K562 CDX. As to the kind of experiment: In vivo tumour inhibition of xenograft leukemia model K562. The note with it: K562 CDX in NOG mice; for Optimal T/C (value): day 17 after tumour transplantation, median tumour volume treated/control; for tumour growth inhibition: i.p. daily, T/C at day 17 after tumour transplantation. The procedure:
In vivo activity against a number of CDX were evaluated in various nude or SCID mice. Tumour cells were inoculated subcutaneous (s.c) into the mice flank. Mice were randomized into groups when tumours were around 100-200 mm^3. A vehicle control group (2.5-4% DMSO, 5% EtOH, 20% PEG200 in saline) was part of each experiment. Treatment was administered intraperitoneally (i.p.) 3 times a week or daily (qd).
Body weight was measured before each treatment and treatments of individual mice was paused, when the body weight loss was >15%. Tumor volumes were measured 2×/week. Mice were individually sacrificed, when the tumor volume reached the volume specified in the laboratory internal SOP.
The tumour inhibition growth was assessed as the optimal T/C, where T represents the median tumour volume of the treated group and C represents the median tumour volume of the control (vehicle) group. Statistical analysis was performed using two way RM ANOVA with p values […] considered statistically significant.
Test compounds were evaluated for the in vivo inhibition activity against the chronic myelogenous leukemia CDX in NOG mice. 1×10^7 cells were injected s.c. into the left flank at day 0. Mice were stratified into groups of 10 mice each with a mean tumor volume of 109±35 mm^3 and the treatment was administered i.p. daily.

The next data set concerns the target T1, ABL1-nonphosphorylated (Homo sapiens, UniProt P00519).
T1 construct: purchased Eurofins (KINOMEscan); host or cells: T7 phage in BL21-derived E. coli, or HEK-293
As to the kind of experiment: KINOMEscan competition binding assay, Kd. The note with it: 11-point 3-fold dilution series. The procedure:
(§1) Selected compounds were screened for kinase inhibition using the KINOMEscan™ assay (Eurofins) which is based on a competition binding assay that quantitatively measures the ability of a compound to compete with an immobilized, active-site directed ligand. The assay was performed by combining three components: DNA-tagged kinase; immobilized ligand; and the test compound. The ability of the test compound to compete with the immobilized ligand was measured via quantitative PCR of the DNA tag.
(§2) Kinase-tagged T7 phage strains were prepared in an E. coli host derived from the BL21 strain. E. coli were grown to log-phase and infected with T7 phage and incubated with shaking at 32° C. until lysis. The lysates were centrifuged and filtered to remove cell debris. The remaining kinases were produced in HEK-293 cells and subsequently tagged with DNA for qPCR detection. Streptavidin-coated magnetic beads were treated with biotinylated small molecule ligands for 30 minutes at room temperature to generate affinity resins for kinase assays. The liganded beads were blocked with excess biotin and washed with blocking buffer (SeaBlock (Pierce), 1% BSA, 0.05% Tween 20, 1 mM DTT) to remove unbound ligand and to reduce non-specific binding. Binding reactions were assembled by combining kinases, liganded affinity beads, and test compounds in 1× binding buffer (20% SeaBlock, 0.17×PBS, 0.05% Tween 20, 6 mM DTT). Test compounds were prepared as 111× stocks in 100% DMSO. Kds were determined using an 11-point 3-fold compound dilution series with three DMSO control points. All compounds for Kd measurements are distributed by acoustic transfer (non-contact dispensing) in 100% DMSO. The compounds were then diluted directly into the assays such that the final concentration of DMSO was 0.9%. All reactions performed in polypropylene 384-well plate. Each was a final volume of 0.02 ml. The assay plates were incubated at room temperature with shaking for 1 hour and the affinity beads were washed with wash buffer (1×PBS, 0.05% Tween 20). The beads were then resuspended in elution buffer (1×PBS, 0.05% Tween 20, 0.5 μM nonbiotinylated affinity ligand) and incubated at room temperature with shaking for 30 minutes. The kinase concentration in the eluates was measured by qPCR.
(§3) Binding constants (Kds) were calculated with a standard dose-response curve using the Hill equation: Response=Background+[Signal−Background/i+(Kd^Hill Slope/Dose^Hill Slope)]. The Hill Slope was set to −1. Curves were fitted using a non-linear least square fit with the Levenberg-Marquardt algorithm.

In data set [1] the target is T2, ABL1(E255K)-phosphorylated (Homo sapiens, UniProt P00519, E255K).
T2 construct: purchased Eurofins (KINOMEscan); host or cells: T7 phage in BL21-derived E. coli, or HEK-293
T2 sequence (P00519 whole entry E255K): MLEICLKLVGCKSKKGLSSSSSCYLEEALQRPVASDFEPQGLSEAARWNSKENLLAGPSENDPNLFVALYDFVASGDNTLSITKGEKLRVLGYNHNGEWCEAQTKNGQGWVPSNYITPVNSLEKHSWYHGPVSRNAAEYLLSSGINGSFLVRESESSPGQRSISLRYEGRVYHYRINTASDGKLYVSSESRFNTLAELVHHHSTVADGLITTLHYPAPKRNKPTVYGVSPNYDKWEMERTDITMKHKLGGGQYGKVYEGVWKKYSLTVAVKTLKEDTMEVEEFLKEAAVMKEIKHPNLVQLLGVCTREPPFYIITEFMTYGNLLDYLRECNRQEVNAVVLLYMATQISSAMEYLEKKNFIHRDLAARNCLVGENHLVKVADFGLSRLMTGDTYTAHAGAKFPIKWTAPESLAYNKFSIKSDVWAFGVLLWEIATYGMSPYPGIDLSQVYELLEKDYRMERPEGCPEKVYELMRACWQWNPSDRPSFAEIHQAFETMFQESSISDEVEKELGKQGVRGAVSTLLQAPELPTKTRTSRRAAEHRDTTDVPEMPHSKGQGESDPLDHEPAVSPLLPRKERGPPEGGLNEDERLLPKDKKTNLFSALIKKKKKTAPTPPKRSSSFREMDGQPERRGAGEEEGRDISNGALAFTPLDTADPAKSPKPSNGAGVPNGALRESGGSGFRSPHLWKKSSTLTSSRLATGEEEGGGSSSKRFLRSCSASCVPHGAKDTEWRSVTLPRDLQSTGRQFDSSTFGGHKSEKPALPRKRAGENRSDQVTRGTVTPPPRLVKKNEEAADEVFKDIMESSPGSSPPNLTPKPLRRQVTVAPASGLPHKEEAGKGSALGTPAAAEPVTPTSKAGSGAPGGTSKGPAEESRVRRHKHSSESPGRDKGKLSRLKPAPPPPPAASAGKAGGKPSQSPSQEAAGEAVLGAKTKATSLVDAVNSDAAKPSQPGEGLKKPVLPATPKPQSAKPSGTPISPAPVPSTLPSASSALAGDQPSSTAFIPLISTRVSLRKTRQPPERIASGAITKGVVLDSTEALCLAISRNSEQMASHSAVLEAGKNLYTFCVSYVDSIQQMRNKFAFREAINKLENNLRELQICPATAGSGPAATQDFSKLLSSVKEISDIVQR
As to the kind of experiment: KINOMEscan competition binding assay, Kd. Conditions: 11-point 3-fold dilution series. The protocol: as §1, §2, §3

The target in a further data set is T3, ABL1-phosphorylated (Homo sapiens, UniProt P00519).
T3 construct: purchased Eurofins (KINOMEscan); host or cells: T7 phage in BL21-derived E. coli, or HEK-293
T3 sequence (P00519 whole entry): as the sequence (P00519 whole entry E255K) above, with K255E counted along it
As to the kind of experiment: KINOMEscan competition binding assay, Kd. Conditions: 11-point 3-fold dilution series. The procedure: as §1, §2, §3

Data set [2] concerns SCLC doxorubicin resistant cell line H69AR. As to the kind of experiment: Cell viability assay (CellTiter-Blue/CellTiter-Glow). The note with it: Homo sapiens, absolute IC50, 72 h. The format is cell-based. The method, boiled down: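 72 h viability assay in RPMI 1640 or DMEM plus 10% FCS; seeding density set by growth rate (4,000-20,000 cells/well). CellTiter-Blue or CellTiter-Glo endpoint, absolute IC50 at T/C=50%.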
A general note: The colour change of resazurin is a common sign of viable cells or microbes.

T1 sequence (P00519 whole entry): as the sequence (P00519 whole entry E255K) above, with K255E counted along it

For `O=c1cc(-c2ccc(CCCC[P+](c3ccccc3)(c3ccccc3)c3ccccc3)cc2)oc2c(O)c(O)ccc12` [SND118, 4-[4-(7,8-dihydroxy-4-oxo-chromen-2-yl)phenyl]butyltriphenyl-phosphonium bromide], in the data set on K562 CDX (10 mg/kg/inj i.p. qd), the “Weight loss (%)” value is on record as 8% and the “Optimal T/C (value)” value is recorded as 58***. Also, in the data set with K562 CDX, the tumour growth inhibition result is “significantly inhibited tumour growth”.

In the case of `O=c1cc(-c2ccc(CCCC[P+](c3ccccc3)(c3ccccc3)c3ccccc3)cc2)oc2c3c(ccc12)OCO3.[Br-]` [SND123, 4-[4-(6-oxo-[1,3]dioxolo[4,5-h]chromen-8-yl)phenyl]butyl-triphenylphosphonium bromide], the Kd (as a rule, a measure of binding affinity in units of concentration) at ABL1-nonphosphorylated was 1300 nM; in data set [1], 970 nM; on ABL1-phosphorylated, 860 nM. In data set [2], inhibition was half-maximal at 11800 nM (IC50).

On to `COc1c(O)ccc2c(=O)cc(-c3ccc(CCCC[P+](c4ccccc4)(c4ccccc4)c4ccccc4)cc3)oc12.[Br-]` [SND140, (4-(4-(7-hydroxy-8-methoxy-4-oxo-4H-chromen-2-yl)phenyl)butyl)triphenylphosphonium bromide], for which the results for the Kd (at ABL1-nonphosphorylated; in data set [1]; on ABL1-phosphorylated) were 1500 nM, 660 nM and 700 nM, respectively. Also, the half-maximal inhibitory concentration (IC50) (in general, the concentration that inhibits the measured activity by half) in data set [2] amounted to 14600 nM. In addition, the “Weight loss (%)” value in the data set with K562 CDX (5 mg/kg/inj i.p. qd) is recorded as 5%. In addition, in the data set on K562 CDX (5 mg/kg/inj i.p. qd), the “Optimal T/C (value)” value is given as 69*. Besides, the tumour growth inhibition result with K562 CDX is recorded as “significantly inhibited tumour growth”.
